Key:
Experiment in all cases: biochemical
Parameters in all cases: Eurofins recombinant human kinase profiling, remaining kinase activity as % of control, 10 uM ATP
Conditions in all cases: ATP 10 uM; read-out: %Ctrl@10 μM
Arg(h) = target: T1, Arg(h) (Homo sapiens, UniProt P42684)
T1 construct: gene ABL2
From the text: (§1) To rapidly determine the biological target of YL-939, we first tested the activity of YL-939 against a panel of 401 recombinant human protein kinases by using the kinase profiling assay provided by Eurofins, since kinases are often the key components in various signal pathways[35],[36]. […] We then carried out affinity-based proteome profiling assay (ABPP) coupled with bioimaging to identify the biological target of YL-939 (Fig. 4A). To this end, we designed and synthesized a photoaffinity probe, YL-939-1 (Fig. 4A and Supplementary Fig. 5), which is YL-939 attached by a photo-crosslinker (L3) that contains a photo-reactive group diazirine and a clickable alkyne handle.

CDK2/cyclinE(h) = CDK2/cyclinE(h) (Homo sapiens, UniProt P24941)
From the text: as §1

CaMKIIγ(h) = target: T2, CaMKIIγ(h) (Homo sapiens, UniProt Q13555)
T2 construct: gene CAMK2G
From the text: as §1

DMPK(h) = DMPK(h) (Homo sapiens, UniProt Q09013)
From the text: as §1

FGFR2(N549H)(h) = FGFR2(N549H)(h) (Homo sapiens, UniProt P21802, N549H)
From the text: as §1

FGFR2(h) = FGFR2(h) (Homo sapiens, UniProt P21802)
From the text: as §1

HIPK1(h) = HIPK1(h) (Homo sapiens, UniProt Q86Z02)
From the text: as §1

LIMK2(h) = LIMK2(h) (Homo sapiens, UniProt P53671)
From the text: as §1

MAPK1(h) = target: T3, MAPK1(h) (Homo sapiens, UniProt P27361)
T3 construct: gene MAPK3
From the text: as §1

MELK(h) = MELK(h) (Homo sapiens, UniProt Q14680)
From the text: as §1

NEK6(h) = NEK6(h) (Homo sapiens, UniProt Q9HC98)
From the text: as §1

PDGFRα(V561D)(h) = target: T4, PDGFRα(V561D)(h) (Homo sapiens, UniProt P16234, V561D)
T4 construct: gene PDGFRA
From the text: as §1

[1] = target: T5, PI3 Kinase (p110(E545K)/p85)(h) (Homo sapiens, UniProt P42336, E545K)
T5 construct: gene PIK3CA
From the text: as §1

Plk1(h) = Plk1(h) (Homo sapiens, UniProt P53350)
From the text: as §1

Ret(V804M)(h) = Ret(V804M)(h) (Homo sapiens, UniProt P07949, V804M)
From the text: as §1

SIK2(h) = SIK2(h) (Homo sapiens, UniProt Q9H0K1)
From the text: as §1

STK16(h) = STK16(h) (Homo sapiens, UniProt O75716)
From the text: as §1

Src(1-530)(h) = target: T6, Src(1-530)(h) (Homo sapiens, UniProt P12931)
T6 construct: residues 1-530
From the text: as §1

TSSK3(h) = TSSK3(h) (Homo sapiens, UniProt Q96PN8)
From the text: as §1

ZAP-70(h) = target: T7, ZAP-70(h) (Homo sapiens, UniProt P43403)
T7 construct: gene ZAP70
From the text: as §1

cKit(V654A)(h) = target: T8, cKit(V654A)(h) (Homo sapiens, UniProt P10721, V654A)
T8 construct: gene KIT
From the text: as §1

cSRC(h) = target: T9, cSRC(h) (Homo sapiens, UniProt P12931)
T9 construct: gene SRC
From the text: as §1

T8 sequence (P10721 whole entry V654A): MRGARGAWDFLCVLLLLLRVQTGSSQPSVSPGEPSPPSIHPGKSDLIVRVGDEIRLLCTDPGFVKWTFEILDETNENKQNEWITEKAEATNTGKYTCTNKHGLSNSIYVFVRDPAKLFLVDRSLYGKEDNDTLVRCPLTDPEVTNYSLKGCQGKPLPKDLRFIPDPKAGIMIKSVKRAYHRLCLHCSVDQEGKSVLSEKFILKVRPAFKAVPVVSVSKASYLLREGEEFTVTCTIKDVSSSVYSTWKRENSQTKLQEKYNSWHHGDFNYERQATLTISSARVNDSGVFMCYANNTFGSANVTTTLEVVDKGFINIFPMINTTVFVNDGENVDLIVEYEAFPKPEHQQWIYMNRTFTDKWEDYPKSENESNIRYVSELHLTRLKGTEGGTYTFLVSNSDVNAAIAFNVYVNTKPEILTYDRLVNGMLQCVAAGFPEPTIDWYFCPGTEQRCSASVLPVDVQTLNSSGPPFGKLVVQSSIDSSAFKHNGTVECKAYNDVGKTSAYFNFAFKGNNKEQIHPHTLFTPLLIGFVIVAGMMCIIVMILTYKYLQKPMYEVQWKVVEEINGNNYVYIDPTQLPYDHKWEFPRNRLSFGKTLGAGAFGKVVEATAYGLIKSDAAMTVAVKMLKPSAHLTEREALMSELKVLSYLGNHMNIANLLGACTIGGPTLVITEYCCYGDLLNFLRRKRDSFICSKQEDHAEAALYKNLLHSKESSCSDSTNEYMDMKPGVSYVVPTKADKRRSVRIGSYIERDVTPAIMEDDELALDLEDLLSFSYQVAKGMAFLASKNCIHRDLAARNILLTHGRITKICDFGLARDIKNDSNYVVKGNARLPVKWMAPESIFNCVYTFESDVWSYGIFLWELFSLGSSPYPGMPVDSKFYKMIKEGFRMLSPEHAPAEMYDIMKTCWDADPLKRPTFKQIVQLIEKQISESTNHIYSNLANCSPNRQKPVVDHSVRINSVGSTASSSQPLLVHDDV
T3 sequence (P27361 whole entry): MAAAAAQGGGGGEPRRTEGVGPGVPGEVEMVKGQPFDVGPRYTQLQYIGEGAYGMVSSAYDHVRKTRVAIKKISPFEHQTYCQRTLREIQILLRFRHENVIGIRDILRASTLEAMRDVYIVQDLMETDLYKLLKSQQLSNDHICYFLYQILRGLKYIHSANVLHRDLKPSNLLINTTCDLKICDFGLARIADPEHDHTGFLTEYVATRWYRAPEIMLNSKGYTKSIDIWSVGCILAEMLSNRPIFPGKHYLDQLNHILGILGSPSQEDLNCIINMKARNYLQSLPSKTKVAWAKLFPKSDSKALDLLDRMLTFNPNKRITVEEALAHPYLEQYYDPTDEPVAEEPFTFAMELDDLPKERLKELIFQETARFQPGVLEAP
Sequence of Ret(V804M)(h) (P07949 whole entry V804M): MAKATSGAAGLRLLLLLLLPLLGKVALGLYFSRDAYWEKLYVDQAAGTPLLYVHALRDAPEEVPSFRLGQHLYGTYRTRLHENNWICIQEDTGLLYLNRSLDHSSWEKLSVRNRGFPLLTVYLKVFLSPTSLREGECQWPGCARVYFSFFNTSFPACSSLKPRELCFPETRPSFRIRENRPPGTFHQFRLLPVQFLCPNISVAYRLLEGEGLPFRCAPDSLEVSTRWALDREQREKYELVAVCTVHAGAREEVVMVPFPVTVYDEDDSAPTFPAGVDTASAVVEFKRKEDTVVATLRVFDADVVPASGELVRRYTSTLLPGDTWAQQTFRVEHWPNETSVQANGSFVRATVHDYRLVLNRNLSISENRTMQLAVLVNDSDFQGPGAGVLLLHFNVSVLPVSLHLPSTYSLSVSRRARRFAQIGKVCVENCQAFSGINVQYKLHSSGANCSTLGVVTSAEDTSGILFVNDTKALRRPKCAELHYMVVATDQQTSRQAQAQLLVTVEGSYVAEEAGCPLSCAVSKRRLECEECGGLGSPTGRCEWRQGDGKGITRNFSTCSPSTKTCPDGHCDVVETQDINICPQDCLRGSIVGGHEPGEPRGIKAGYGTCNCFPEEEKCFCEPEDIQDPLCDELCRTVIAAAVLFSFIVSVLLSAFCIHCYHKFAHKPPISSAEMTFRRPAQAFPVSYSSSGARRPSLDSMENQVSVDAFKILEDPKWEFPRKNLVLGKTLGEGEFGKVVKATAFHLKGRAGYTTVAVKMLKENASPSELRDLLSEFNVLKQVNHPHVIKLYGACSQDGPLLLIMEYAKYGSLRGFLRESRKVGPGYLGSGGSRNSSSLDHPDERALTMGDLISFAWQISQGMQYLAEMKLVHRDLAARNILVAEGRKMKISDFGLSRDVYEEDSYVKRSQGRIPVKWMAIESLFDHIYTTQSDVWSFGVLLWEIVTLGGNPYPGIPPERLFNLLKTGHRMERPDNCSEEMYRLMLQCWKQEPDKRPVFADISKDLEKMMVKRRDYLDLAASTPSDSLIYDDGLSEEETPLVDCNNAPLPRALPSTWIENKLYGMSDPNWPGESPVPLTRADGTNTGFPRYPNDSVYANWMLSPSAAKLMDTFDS
Sequence of SIK2(h) (Q9H0K1 whole entry): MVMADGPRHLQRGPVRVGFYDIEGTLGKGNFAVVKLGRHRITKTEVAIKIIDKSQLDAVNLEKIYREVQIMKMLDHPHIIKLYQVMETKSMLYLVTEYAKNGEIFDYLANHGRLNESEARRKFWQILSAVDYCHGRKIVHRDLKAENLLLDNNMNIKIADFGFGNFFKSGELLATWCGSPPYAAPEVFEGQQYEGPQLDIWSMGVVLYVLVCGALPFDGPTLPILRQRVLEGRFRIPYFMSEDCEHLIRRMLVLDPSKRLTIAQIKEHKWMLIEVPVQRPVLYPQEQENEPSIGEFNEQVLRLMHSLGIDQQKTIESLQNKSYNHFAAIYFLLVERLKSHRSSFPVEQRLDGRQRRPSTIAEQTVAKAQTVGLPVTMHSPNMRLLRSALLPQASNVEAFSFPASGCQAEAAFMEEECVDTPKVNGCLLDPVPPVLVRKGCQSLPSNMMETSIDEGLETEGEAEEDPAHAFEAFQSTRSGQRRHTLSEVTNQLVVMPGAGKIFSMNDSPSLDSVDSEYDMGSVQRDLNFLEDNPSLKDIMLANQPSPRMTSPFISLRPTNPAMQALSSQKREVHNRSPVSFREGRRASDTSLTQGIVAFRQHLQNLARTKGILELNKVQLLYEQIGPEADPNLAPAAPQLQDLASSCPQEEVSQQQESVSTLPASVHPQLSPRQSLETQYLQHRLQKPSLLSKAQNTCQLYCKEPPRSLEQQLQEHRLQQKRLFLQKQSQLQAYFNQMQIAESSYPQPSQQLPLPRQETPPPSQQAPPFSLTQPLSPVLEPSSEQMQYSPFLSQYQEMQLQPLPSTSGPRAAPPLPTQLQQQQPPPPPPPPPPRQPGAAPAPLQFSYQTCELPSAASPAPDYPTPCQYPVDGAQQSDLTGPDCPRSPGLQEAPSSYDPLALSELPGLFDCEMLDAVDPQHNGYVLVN
T7 sequence (P43403 whole entry): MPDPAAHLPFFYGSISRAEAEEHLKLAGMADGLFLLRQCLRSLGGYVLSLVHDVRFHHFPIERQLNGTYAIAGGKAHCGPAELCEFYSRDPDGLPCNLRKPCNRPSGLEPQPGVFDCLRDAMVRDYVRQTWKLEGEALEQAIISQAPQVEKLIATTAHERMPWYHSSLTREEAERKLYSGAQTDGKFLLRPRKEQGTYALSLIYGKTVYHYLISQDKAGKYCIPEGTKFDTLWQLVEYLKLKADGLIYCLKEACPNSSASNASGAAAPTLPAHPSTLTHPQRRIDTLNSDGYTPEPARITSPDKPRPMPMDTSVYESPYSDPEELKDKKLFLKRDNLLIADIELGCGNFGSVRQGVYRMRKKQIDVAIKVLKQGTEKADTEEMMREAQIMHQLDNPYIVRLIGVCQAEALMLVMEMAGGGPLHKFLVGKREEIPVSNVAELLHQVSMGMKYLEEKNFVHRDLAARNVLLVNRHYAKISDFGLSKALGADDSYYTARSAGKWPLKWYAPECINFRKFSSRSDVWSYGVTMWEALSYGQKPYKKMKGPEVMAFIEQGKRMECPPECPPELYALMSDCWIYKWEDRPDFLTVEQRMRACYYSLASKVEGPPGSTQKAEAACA
Sequence of TSSK3(h) (Q96PN8 whole entry): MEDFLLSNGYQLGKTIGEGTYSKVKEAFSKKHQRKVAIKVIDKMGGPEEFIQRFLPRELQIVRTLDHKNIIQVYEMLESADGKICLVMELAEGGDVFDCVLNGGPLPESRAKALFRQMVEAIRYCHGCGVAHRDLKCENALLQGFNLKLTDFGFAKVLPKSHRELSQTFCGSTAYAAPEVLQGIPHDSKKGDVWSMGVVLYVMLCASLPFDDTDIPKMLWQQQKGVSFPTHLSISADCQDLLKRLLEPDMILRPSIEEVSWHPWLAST
Sequence of Plk1(h) (P53350 whole entry): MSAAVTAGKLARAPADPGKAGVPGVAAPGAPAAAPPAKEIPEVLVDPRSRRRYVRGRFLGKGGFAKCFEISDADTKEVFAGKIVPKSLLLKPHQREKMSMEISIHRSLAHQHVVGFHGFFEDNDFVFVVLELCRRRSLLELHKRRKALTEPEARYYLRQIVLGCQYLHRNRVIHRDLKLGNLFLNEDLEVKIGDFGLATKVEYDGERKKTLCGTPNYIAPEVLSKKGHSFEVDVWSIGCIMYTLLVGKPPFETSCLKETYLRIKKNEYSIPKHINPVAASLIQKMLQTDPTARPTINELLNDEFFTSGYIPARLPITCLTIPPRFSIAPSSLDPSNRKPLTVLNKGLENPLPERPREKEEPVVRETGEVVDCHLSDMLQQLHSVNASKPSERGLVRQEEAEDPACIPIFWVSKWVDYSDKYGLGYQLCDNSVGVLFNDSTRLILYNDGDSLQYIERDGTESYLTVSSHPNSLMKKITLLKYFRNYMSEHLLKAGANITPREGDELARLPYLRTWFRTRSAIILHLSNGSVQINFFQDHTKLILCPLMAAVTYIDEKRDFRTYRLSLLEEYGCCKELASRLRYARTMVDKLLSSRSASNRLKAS

SMILES: C1=C(c2nc(-c3cnn(C4CCNCC4)c3)cn3cc(-c4ccccc4)nc23)CCOC1 [YL-939]
- remaining activity at 10 µM (Arg(h)): 108%
- remaining activity at 10 µM (CDK2/cyclinE(h)): 85%
- remaining activity at 10 µM (CaMKIIγ(h)): 86%
- remaining activity at 10 µM (DMPK(h)): 107%
- remaining activity at 10 µM (FGFR2(N549H)(h)): 94%
- remaining activity at 10 µM (FGFR2(h)): 95%
- remaining activity at 10 µM (HIPK1(h)): 97%
- remaining activity at 10 µM (LIMK2(h)): 85%
- remaining activity at 10 µM (MAPK1(h)): 103%
- remaining activity at 10 µM (MELK(h)): 91%
- remaining activity at 10 µM (NEK6(h)): 97%
- remaining activity at 10 µM (PDGFRα(V561D)(h)): 101%
- remaining activity at 10 µM [1]: 95%
- remaining activity at 10 µM (Plk1(h)): 84%
- remaining activity at 10 µM (Ret(V804M)(h)): 102%
- remaining activity at 10 µM (SIK2(h)): 94%
- remaining activity at 10 µM (STK16(h)): 100%
- remaining activity at 10 µM (Src(1-530)(h)): 85%
- remaining activity at 10 µM (TSSK3(h)): 87%
- remaining activity at 10 µM (ZAP-70(h)): 97%
- remaining activity at 10 µM (cKit(V654A)(h)): 92%
- remaining activity at 10 µM (cSRC(h)): 78%

Source: PMC9719519, “Non-classical ferroptosis inhibition by a small molecule targeting PHB2” (Nature Communications, 2022)
